Experimental data from patent US5795861A, “Methods for regulating gastrointestinal motility” (Amylin Pharmaceuticals Inc., priority 1995, dated 1998).
No end group written: not given here.

Columns and labels:
Mongrel dogs = assay: oral glucose tolerance test in dogs during amylin ± AC-0253 infusion; type: in vivo; conditions: for effects on plasma lactate: oral glucose load
Description: Mongrel dogs (9 males, 12-17 kg wt. range) were used for this study. All animals were fasted overnight prior to each study. Each animal served as its own control for all protocols. Animals were equilibrated for 30-60 minutes prior to the start of each protocol.
25% glucose (1 gm/kg) was administered by mouth at t=0 minutes. […] Samples for insulin, glucose and lactate were obtained at 15 minute intervals from t=-45 to t=180 minutes.

corpulent LA/N rats = assay: uptake of ingested labelled glucose load after amylin antagonist preinjection; type: in vivo, rat; conditions: for acceleration of appearance of glucose-derived tritium in the plasma: 3 μg s.c. 3 minutes before gavage
Description: Uptake of an ingested labelled glucose load was measured in 11 conscious 24-hr fasted corpulent (500-600 g) LA/N rats on 2 occasions, 14 days apart.

[1] = system: rats, rabbits, humans with Paget's disease; conditions: cited from earlier work
anesthetized rats [2] = assay: perfused exteriorized small bowel, passage of tritium-labelled glucose into plasma; type: in vivo, rat; conditions: plasma glucose clamped
Excerpt: (§1) After one hour of amylin infusion, a bolus of glucose (lg/kg) was infused either into the stomach or the duodenum through a tube inserted through the esophagus. Because-the studies involved anesthetized rather than conscious rats, they are not considered in analyzing gastric motility, e.g., rate of emptying of stomach contents into the duodenum. However, the studies indicate that absorption of glucose from the duodenum into the blood was not delayed by amylin. […] In anesthetized rats, a segment of small bowel, still connected to the animal via its blood supply, was exteriorized and cannulae inserted so that the small bowel could be perfused with glucosed solutions of controlled composition. The animals were cannulated also via an artery (for blood sampling) and via a vein (for infusion of amylin, insulin and glucose). The lumen was perfused with a tritium-labelled glucose solution. The passage of glucose from the lumen of the gut into the rat was measured by the appearance of the tritium label in the plasma. The supposition that such appearance of tritium in the plasma was indeed measuring glucose uptake from the gut was tested by administration of the glucose transport blocker, phloridzin. […]

[3] = system: non-diabetic Harlan Sprague Dawley rats; assay: gastric emptying of Phenol Red methylcellulose gel, normal rats; type: in vivo, rat; conditions: for ED50, suppression of gastric emptying: normal rats fasted 20 hours, s.c. 5 min before gavage
Excerpt: (§2) Twenty minutes after gavage, rats were anesthetized using 5% halothane, the stomach exposed and clamped at the pyloric and lower esophageal sphincters using artery forceps, removed and opened into an alkaline solution which was made up to a fixed volume. Stomach content was derived from the intensity of the phenol red in the alkaline solution, measured by absorbance at a wavelength of 560 nm. In most experiments, the stomach was clear. In other experiments, particulate gastric contents were centrifuged to clear the solution for absorbance measurements. Where the diluted gastric contents remained turbid, the spectroscopic absorbance due to Phenol Red was derived as the difference between that present in alkaline vs acidified diluent. In separate experiments on 7 rats, the stomach and small intestine were both excised and opened into an alkaline solution. The quantity of phenol red that could be recovered from the upper gastrointestinal tract within 20 minutes of gavage was 89±4%. To account for a maximal dye recovery of less than 100%, stomach contents remaining after 20 min were expressed as a fraction of the gastric contents recovered from control rats sacrificed immediately after gavage in the same experiment.
Since ED50 is log-normally distributed, it is expressed i standard error of the logarithm. Pairwise comparisons were performed using one-way analysis of variance and the Student-Newman-Keuls multiple comparisons test (Instat v2.0, GraphPad Software, San Diego) using P<0.05 as the level of significance.

[4] = plasma amylin concentration after subcutaneous rat amylin (immuno-enzymometric assay); type: in vivo; conditions: sc
Description: The plasma from 250 μL samples collected at 10 min intervals was separated and frozen at -20° C. for analysis by a 2-site immuno-enzymometric assay developed in-house.
To perform the immunoassay, black microtiter plates (Dynatech, Chantilly, Va.) were coated with the antibody F024-4.4 [Phelps J L, Blase E, Koda J E, unpublished] by overnight incubation at 4° C. with 20 ug antibody per mL in 50 mM carbonate at pH 9.6. Plates were washed with 0.05M Tris/0.15M sodium chloride/0.02% sodium azide/0.1% Tween 20 (TBS/Tween), and blocked with 1.0% nonfat dry milk powder in the same carbonate buffer for one hour at room temperature. Samples were thawed on ice, and diluted in 4% BSA/200mg/dl bovine cholesterol supertrate (Miles Pentex reagents, Miles Laboratories, Kankakee Ill.) if necessary. Samples or standards were added to the coated and blocked plates and incubated for one hour at room temperature. After washing, the F025-27 detection antibody conjugated to alkaline phosphatase was added. Antibody-enzyme coupling was performed using the maleimide alkaline phosphatase conjugation kit from Pierce Immunochemical Co (Rockford Ill.). The conjugate was incubated for three hours at room temperature, after which plates were washed thoroughly with Tris buffered saline. Bound enzyme was detected by incubation of the plates with the fluorescent substrate 4-methylumbelliferyl phosphate at 50 ug/ml in 1M diethanolamine/0.5 mM MgCl, pH 9.8 for 40 minutes at room temperature. The fluorescent signal was measured with a Dynatech Microfluor plate reader, and data analyzed on Multicalc software (Wallac, Gaithersburg Md.). […] When performed in this manner, the assay has a minimum detectable concentration of 2 pM.

diabetic BB rats = assay: gastric emptying of Phenol Red methylcellulose gel, diabetic rats; type: in vivo, rat; conditions: for ED50 for suppression of gastric emptying: diabetic rats fasted 6 hours, s.c. 5 min before gavage
Description: When BB rats were confirmed as being diabetic by glycosuria on at least 2 days, they were treated with daily s.c. injections of ultralente recombinant human insulin (Humulin-U, Eli Lilly, Ind.). Insulin therapy was aimed at maintaining glucose but minimizing ketones in the urine, in order to avoid hypoglycemic deaths. In fact, glycosuria was present in 88% of measurements and ketonuria in 52%. The average duration of diabetes was 53±5 days, and daily insulin requirements were 4.7±0.3 units. All animals were housed at 22.7±0.8 C in a 12:12 hour light:dark cycle (experiments being performed during the light cycle) and were fed and watered ad libitum (Diet LM-485, Teklad, Madison, Wis.).
The determination of gastric emptying by the method described below has usually been performed after a fast of ~20 hours to ensure that the stomach contained no chyme that would interfere with spectrophotometric absorbance measurements. However, diabetic rats treated with Ultralente insulin could not be fasted for 20 hours. […] Such animals were therefore. fasted for only 6 hours before measurement of gastric emptying. Non-diabetic rats were deprived of food for either 6 or 20 hours prior to experimentation. We have noted that even non-diabetic BB rats have elevated glycated hemoglobin concentrations, possibly indicating subclinical insulitis. Both non-diabetic Harlan Sprague Dawley rats and non-diabetic BB rats animals were therefore used in comparisons with diabetic rats. Thus there were 5 treatment groups:
as §2, with “experiment. […]” for “experiment.”

intact rats = conditions: given subcutaneously, no disturbance of blood pressure
anesthetized rats [5] = assay: glucose bolus into stomach or duodenum during amylin infusion; type: in vivo; conditions: rat amylin 0.35 nm/kg/min infusion
Excerpt: as §1

fed rats = conditions: preinfusion of antagonist; cited from earlier work
[6] = system: motility of the gastro-intestinal tract; conditions: 0.2 to 2 mgs intravenously; cited from earlier work

With “acetyl-^11,18 Arg, ^30 Arg, ^32 Tyr-^9-32 calcitonin (salmon) [AC-0253]” the “changes in plasma glucose, antagonist alone” value (Mongrel dogs; AC-0253 alone) was “has no effect”, the “reversal of amylin-induced changes in plasma glucose” value (Mongrel dogs; AC-0253 up to 1500 pmol/kg/min with amylin 50 pmol/kg/min) was “does not completely reverse the effects of amylin” and the “effects on plasma lactate” value (Mongrel dogs) was “unremarkable”.

With “acetyl-^10 Asn^32 Tyr^8-32 salmon calcitonin (Ac-VLNKLSQELHKLQTYPRTNTGSGTY; ends and bridges not checked) [AC-0187]” the “plasma glucose 60 minutes after glucose gavage” value (corpulent LA/N rats; 3 μg s.c.) was 6.89 ± 0.28 mM, the “acceleration of appearance of glucose-derived tritium in the plasma” value (corpulent LA/N rats; 15 minutes post-gavage) was 48% and the “acceleration of appearance of glucose-derived tritium in the plasma” value (corpulent LA/N rats; 30 minutes post-gavage) was 45%. The “plasma glucose 15 minutes after gavage” value (corpulent LA/N rats; 3 μg s.c., gavage with 0.5 g glucose) was 8.33 ± 0.28 mM and the “plasma glucose before gavage” value (corpulent LA/N rats; 3 μg s.c., starting value) was 5.89 ± 0.17 mM.

In the case of `CC(C)C[C@H](NC(=O)[C@H](CC(N)=O)NC(=O)[C@H](CC(N)=O)NC(=O)[C@H](CO)NC(=O)[C@H](CO)NC(=O)[C@H](CCCNC(=N)N)NC(=O)[C@@H](NC(=O)[C@H](CC(C)C)NC(=O)[C@H](Cc1ccccc1)NC(=O)[C@H](CC(N)=O)NC(=O)[C@H](C)NC(=O)[C@H](CC(C)C)NC(=O)[C@H](CCCNC(=N)N)NC(=O)[C@H](CCC(N)=O)NC(=O)[C@@H](NC(=O)[C@H](C)NC(=O)[C@@H]1CSSC[C@H](NC(=O)[C@@H](N)CCCCN)C(=O)N[C@@H](CC(N)=O)C(=O)N[C@@H]([C@@H](C)O)C(=O)N[C@@H](C)C(=O)N[C@@H]([C@@H](C)O)C(=O)N1)[C@@H](C)O)C(C)C)C(=O)NCC(=O)N1CCC[C@H]1C(=O)N[C@H](C(=O)N[C@@H](CC(C)C)C(=O)N1CCC[C@H]1C(=O)N1CCC[C@H]1C(=O)N[C@H](C(=O)N[C@@H](CC(N)=O)C(=O)N[C@H](C(=O)NCC(=O)N[C@@H](CO)C(=O)N[C@@H](CC(N)=O)C(=O)N[C@H](C(=O)N[C@@H](Cc1ccc(O)cc1)C(N)=O)[C@@H](C)O)C(C)C)[C@@H](C)O)C(C)C` [amylin], the “lowering of plasma calcium” value [1] is given as “up to 20%”, the “passage of tritium-labelled glucose from the gut lumen into the plasma” value (anesthetized rats [2]) is given as “had no effect” and the “ED50 of inhibition of gastric emptying (summary statement)” value ([3]; normal rats) is given as ~ 1 μg. The “ED50, suppression of gastric emptying” value [3] was 0.60 nmole amylin/kg body weight, the “ED50, suppression of gastric emptying” value ([3]; ±0.19 log units) was 0.43 µg and the level at time molar at 10 min ([4]; 1 ug, 1 μg s.c.) was 0.066 ± 0.01 nM. The level at time molar at 10 min ([4]; 10 ug, 10 μg s.c. bolus) was 0.347 ± 0.043 nM, the level at time molar at 20 min ([4]; 10 ug, 10 μg s.c. bolus, 20 min) was 0.301 ± 0.057 nM and the “dose that would restore gastric emptying to the rate of normal rats not administered amylin” value (diabetic BB rats; diabetic rat, estimated from fitted curves of FIG. 14) was ~ 2 μg. The “ED50 of inhibition of gastric emptying (summary statement)” value (diabetic BB rats; diabetic rats) was ~ 1 μg, the “ED50 for suppression of gastric emptying” value (diabetic BB rats) was 2.3 nmol/kg and the “ED50 for suppression of gastric emptying” value (diabetic BB rats; ±0.18 log units) was 2.2 µg. The “rate of rise and peak of plasma glucose after oral glucose load” value (Mongrel dogs; amylin infusion 50, 100 and 300 pmol/kg/min, 25% glucose 1 gm/kg by mouth) was “reduced both the rate of rise in plasma glucose as well as the peak plasma glucose”, the “effects on plasma lactate” value (Mongrel dogs) was “unremarkable” and the plasma renin activity (intact rats) was “markedly increases”. The “absorption of glucose from the duodenum into the blood” value (anesthetized rats [5]) was “not delayed”.

In the case of “^8-37 hCGRP: demonstrated amylin blocker in vitro and in vivo; also an effective CGRP antagonist (VTHRLAGLLSRSGGVVKNFVPTNVGSKAF)”, the “glucose concentration following arginine infusion” value (fed rats) is listed as “subsequent fall in glucose concentration to well below the basal level” and the “insulin concentration 30 minutes following the arginine infusion vs normal controls” value (fed rats) is listed as “almost twice as high”.

For `O=C(CCc1ccc(O)cc1)c1c(O)cc(O)cc1O[C@@H]1O[C@H](CO)[C@@H](O)[C@H](O)[C@H]1O` [Phloridzin, reference compound], the “passage of tritium-labelled glucose from the gut lumen into the plasma” value (anesthetized rats [2]) was “largely prevented the transit of label from the gut lumen into the plasma”.

For “glucagon: polypeptide hormone produced by the alpha cells of the pancreatic islets; administered as glucagon hydrochloride”, the onset of effect [6] is given as “within one minute”.
